Data on nine compounds can be found in patent US4210663A, “Halogen substituted benzopyran- and benzothiopyran-4-carboxylic acids” (Pfizer Inc., priority 1978, dated 1980).

This assay deals with T1, aldose reductase (Bos taurus, UniProt P16116).
T1 construct: partially purified aldose reductase enzyme obtained from calf lens; from tissue; host or cells: calf lens
In words: inhibition of aldose reductase enzyme activity (procedure of U.S. Pat. No. 3,821,383, based on Hayman et al.). Format: biochemical. The settings on record: partially purified aldose reductase from calf lens, / = results of duplicate tests; for inhibition at 100 µM: 10^-4 M. The source says: Pat. No. 3,821,383 and based on the procedure of Hayman et. al., Journal of Biological Chemistry, 240, 877 (1965). The substrate employed was partially purified aldose reductase enzyme obtained from calf lens. The results obtained with each compound at a concentration of 10^-4 M are expressed as percent inhibition of enzyme activity.

What is called inhibition is the relative decrease from the control value, in per cent. Lower therefore signals little suppression. A word on the % Inhibition: it is the percentage by which the read-out fell short of the control. Take `O=C(O)C1CCOc2c(Cl)cc(-c3ccccc3)cc21` (stereo not drawn) [Example 2, 6-phenyl-8-chloro-3,4-dihydro-2H-1-benzopyran-4-carboxylic acid]: at 100 µM the inhibition was 74% and the “% Inhibition at 10^-4 M (aldose reductase enzyme activity)” value is reported as 67%.

Regarding `O=C(O)C1CCOc2c1cc(Cl)c1ccccc21` (stereo not drawn) [Example 14, 6-chloro-3,4-dihydro-2H-naphtho[1,2-b]pyran-4-carboxylic acid], the inhibition at 100 µM amounted to 88% and the “% Inhibition at 10^-4 M (aldose reductase enzyme activity)” value came to 90%.

`O=C(O)CC1CCOc2ccc(Cl)cc21` (stereo not drawn) [Example 18, 6-chloro-3,4-dihydro-2H-1-benzopyran-4-acetic acid] came in with an inhibition at 100 µM of 69%.

As to `O=C(O)C1CCOc2c(Cl)cc(Cl)cc21` (stereo not drawn) [Example 8, 6,8-dichloro-3,4-dihydro-2H-1-benzopyran-4-carboxylic acid], the inhibition at 100 µM was 82% and the “% Inhibition at 10^-4 M (aldose reductase enzyme activity)” value is 89%.

With `O=C(O)C1CCOc2ccc(F)cc21` (stereo not drawn) [Example 10, 6-fluoro-3,4-dihydro-2H-1-benzopyran-4-carboxylic acid], the inhibition at 100 µM came to 71%.

Regarding `O=C(O)C1CCSc2cc(Cl)c(Cl)cc21` (stereo not drawn) [Example 4, 6,7-dichloro-3,4-dihydro-2H-1-benzothiopyran-4-carboxylic acid], the inhibition at 100 µM was found to be 92% and the “% Inhibition at 10^-4 M (aldose reductase enzyme activity)” value is on record as 76%.

In the case of `Cc1cc(Cl)cc2c1OCCC2C(=O)O` (stereo not drawn) [Example 6, 6-chloro-8-methyl-3,4-dihydro-2H-1-benzopyran-4-carboxylic acid], testing at 100 µM gave an inhibition of 87% and the “% Inhibition at 10^-4 M (aldose reductase enzyme activity)” value is recorded as 89%.

Regarding `O=C(O)C1CCOc2ccc(Cl)cc21` (stereo not drawn) [Example 12, 6-chloro-3,4-dihydro-2H-1-benzopyran-4-carboxylic acid], the inhibition at 100 µM came to 85% and the “% Inhibition at 10^-4 M (aldose reductase enzyme activity)” value stood at 81%.

For `O=C(O)C1CCSc2ccc(Cl)cc21` (stereo not drawn) [Example 16, 6-chloro-3,4-dihydro-2H-1-benzothiopyran-4-carboxylic acid], the inhibition at 100 µM turned out to be 70%.
